This is an account of results in patent publication US20110008304A1, “USE OF CELLS TO FACILITATE TARGETED DELIVERY OF NANOPARTICLE THERAPIES” (KANSAS STATE UNIVERSITY RESEARCH FOUNDATION, priority 2007, published 2011).

The test system of data set [1] is MDA-MB-231 breast tumor cell line. Kind of data set: NCI 60 human tumor cell lines, SRB protein assay, MDA-MB-231. It is filed as cell-based. Conditions: SRB protein assay after 2 days, read-out: GI50 (growth inhibition at 50%). The source says: (§1) An analog of AQ10, AQ9 (NSC 727286), has been evaluated by NCI's 60 human tumor cell lines using the SRB protein assay to estimate cell growth and viability after 2 days. […] AQ10 is less cytotoxic than AQ9 in L1210 and HL60 cell lines (Table 1).
(§2) Similarly TT compounds such as TT24 were synthesized from TT2 and evaluated for their antitumor activities (Hua et al. 2004. Tetrandedron 60:10155-63, Hua et al. […], Hua et al. 2006. Anticancer Agents Med. Chem. 6:303-18, Wang et al. 2002. Cancer Lett. 188:73-83). Selective bromination of TT2 with N-bromosuccinimide (NBS) in DMF followed by addition of allylmethylamine and removal of the allyl protecting group with Pd(PPh3)4 afforded TT24. TT24 (NSC 727284-K), has been evaluated by NCI's 60 human tumor cell lines using the SRB protein assay to estimate cell growth and viability after 2 days.

Another data set concerns K562. Kind of data set: NCI 60 human tumor cell lines, SRB protein assay, K562. The data set is classed as cell-based. Conditions: K562, SRB protein assay after 2 days; read-out: GI50 (growth inhibition at 50%).
From the text: as §1

Another data set has as its system LL/2 tumor cells. Briefly: MTS:PMS viability assay at day 4 in vitro, LL/2. The data set is classed as cell-based. Conditions: MTS:PMS assay at day 4 in vitro, means ± SD, n = 3.
The test system of the next data set is HL-60. Briefly: NCI 60 human tumor cell lines, SRB protein assay, HL-60. It is filed as cell-based. Conditions: HL-60, SRB protein assay after 2 days; read-out: GI50 (growth inhibition at 50%).
From the text: as §1

Another data set has as its system L1210 tumor cells. Kind of data set: MTS:PMS viability assay at day 4 in vitro, L1210. It is filed as cell-based. Conditions: MTS:PMS assay at day 4 in vitro, means ± SD, n = 3.
For the next data set, the system named is HL-60 tumor cells. Kind of data set: MTS:PMS viability assay at day 4 in vitro, HL-60. The data set is classed as cell-based. Conditions: MTS:PMS assay at day 4 in vitro, means ± SD, n = 3.
For another data set, the system named is SN12 C renal. Briefly: NCI 60 human tumor cell lines, SRB protein assay, SN12 C. The data set is classed as cell-based. Conditions: SRB protein assay after 2 days, read-out: GI50 (growth inhibition at 50%).
From the text: as §1

The next data set deals with MOLT-4. Briefly: NCI 60 human tumor cell lines, SRB protein assay, MOLT-4. It is filed as cell-based. Conditions: MOLT-4, SRB protein assay after 2 days; read-out: GI50 (growth inhibition at 50%).
From the text: as §1

In the next data set the test system is SR. Briefly: NCI 60 human tumor cell lines, SRB protein assay, SR. It is filed as cell-based. Conditions: SRB protein assay after 2 days, read-out: GI50 (growth inhibition at 50%).
From the text: as §1

Another data set has as its system HCT-116 colon. Briefly: NCI 60 human tumor cell lines, SRB protein assay, HCT-116. Conditions: SRB protein assay after 2 days, read-out: GI50 (growth inhibition at 50%). The data set is classed as cell-based.
From the text: as §1

Data set [2] in a line: Anti-cancer effect of drug-loaded nanogels, test not specified. The data set is classed as cell-based.
The next data set relates to NCI/ADR-RES. Briefly: NCI 60 human tumor cell lines, SRB protein assay, NCI/ADR-RES. It is filed as cell-based. Conditions: NCI/ADR-RES breast, SRB protein assay after 2 days; read-out: GI50 (growth inhibition at 50%).
From the text: as §2

For data set [3], the system named is T47D breast tumor cell line. Briefly: NCI 60 human tumor cell lines, SRB protein assay, T47D. The data set is classed as cell-based. Conditions: SRB protein assay after 2 days, read-out: GI50 (growth inhibition at 50%).
From the text: as §2

Another data set has as its system L1210 cells. Briefly: Inhibition of L1210 cells by TT24. The data set is classed as cell-based.
In a further data set the test system is TK+UCMS cells. Briefly: Cell number of TK+UCMS cells exposed to pro-drug. The data set is classed as cell-based. Conditions: dose range of 0 μM to 1600 μM. The source says: UCMS cells have been successfully engineered for stable expression of HSV-thymidine kinase. […] Thus, the suicide gene system is effective; after GCV administration to mice bearing tumors into which the UCMS-NG-TH (UCMS cells containing nanogels loaded with therapeutic agents) have trafficked, the NG-TH will be released into the tumor interstitium when the stem cells undergo apoptosis.

The next data set has as its system Pan 02 cells. Briefly: Pan 02 cell viability, MTT assay. The data set is classed as cell-based, mouse. As to the method:
Cell proliferation evaluation. The number of viable cells was evaluated by the MTT ([…]-2,5-diphenyl-tetrazolium bromide) assay (Roche Diagnostics GmbH, Germany) as well as hemocytometer and trypan blue exclusion analysis. Pan 02 cells were seeded in a 96 well plate. […] After incubation for 48 hrs, the medium was replaced with fresh medium containing 0.5 mg of MTT reagent per ml of medium and incubated for four hours at 37° C. Then, 100 μL of solubilization reagent was added to each well and incubated overnight at 37° C. Absorbance was measured in an ELISA plate reader at 550 nm, with the absorbance at 690 nm to correct for background, and viability was expressed as the percentage of untreated controls. To validate the MTT assay, trypan blue exclusion and hemocytometer counting assay was performed in parallel. All experiments were done in duplicate and were performed three times.
Statistical analysis. All values are expressed as means ±SE. Values of untreated cells were taken as […]. Statistical analysis of all Pan 02 cell proliferation assays were analyzed using repeated measures of ANOVA. […] Statistical significance was considered if P<0.05.

The nature of data set [4]: Solubility in water / encapsulation. It is filed as physicochemical.

“Also recorded” adds a separate entry of the source.

As for `O=C1C=CC(=O)c2cc3cc(CBr)ccc3cc21` [AQ9], the GI50 in data set [1] is 0.735 µM; with K562 it was 0.339 µM; in the data set on HL-60, less than 0.01 µM; with SN12 C renal, 0.379 µM; with MOLT-4, less than 0.01 µM; in the data set with SR it was 0.0371 µM. Further, in the data set on HCT-116 colon, the GI50 stood at 0.606 µM. For the same compound, the values for the IC50 in the data set with LL/2 tumor cells, with L1210 tumor cells and in the data set with HL-60 tumor cells were 0.68 ± 0.087 µM, 0.026 ± 0.001 µM and 0.079 ± 0.003 µM, respectively.

Take Triton: the “Anti-cancer / antitumor effect” value in [2] is “significantly potentiated the anti-cancer effect”.

Consider `CNC1=CC(=O)C2=C(C1=O)C1C3=C(C(=O)C(Br)=C(OC)C3=O)C2c2ccccc21` (stereo not shown) [TT24], for which the GI50 in data set [1] turned out to be 1.41 µM; with NCI/ADR-RES, 1.55 µM; in data set [3], 1.44 µM. The compound also yielded an IC50 with L1210 cells of 0.048 µM.

Take `Nc1nc(O)c2ncn(COC(CO)CO)c2n1` [Ganciclovir]: the “Cell number of TK+UCMS cells” value with TK+UCMS cells was “Decreased cell number”.

As for `O=C1C=CC(=O)c2cc3cc(CO)ccc3cc21` [AQ10, 6-(hydroxymethyl)-1,4-anthracenedione], the half-inhibitory concentration (IC50) in the data set on LL/2 tumor cells (LL/2, 96 h) is 0.494 ± 0.059 µM; in the data set on L1210 tumor cells (Mus musculus, L1210, 96 h), 0.037 ± 0.002 µM; with HL-60 tumor cells (Homo sapiens, HL-60, 96 h), 0.125 ± 0.007 µM. Further, in the data set on Pan 02 cells (MTT assay, 48 hrs, doses of 4.2, 8.4 and 16.8 μM, vs untreated and DMSO treated cells), the “Effect of AQ10 dissolved in DMSO on Pan 02 cell viability / growth” value was “significantly attenuated; also recorded: significant effect; also recorded: significantly decreased”. Further, in the data set on Pan 02 cells (comparison of AQ10-nanogel PEG-PEI with AQ10 alone), the “Growth attenuation of Pan 02 cells, AQ10 in nanogel PEG-PEI relative to AQ10 alone (in DMSO)” value is “three to four times less effective”. The Solubility in water entry in data set [4] is on record as “insoluble”.
